Measured values reported in the NIST ThermoML archive (doi:10.1016/j.tca.2016.03.033).
± gives the expanded uncertainty stated by the source.

Legend:
[1] = xn = mol fraction of the nth substance listed; settings: Ring tensiometer
[2] = Ring tensiometer

Molecule `[F][La]([F])[F]` [lanthanum trifluoride] + [F-].[Li+] has a surface tension liquid-gas ([1]; 1223 K, x1 = 0.2) of 257.3 ± 4.2 mN/m, a surface tension liquid-gas ([1]; 1223 K, x1 = 0.25) of 264.7 ± 4.3 mN/m and a surface tension liquid-gas ([1]; 1223 K, x1 = 0.3) of 272.2 ± 4.4 mN/m. It also gave a surface tension liquid-gas ([1]; 1248 K, x1 = 0.2) of 254.9 ± 4.1 mN/m, a surface tension liquid-gas ([1]; 1248 K, x1 = 0.25) of 262.1 ± 4.2 mN/m and a surface tension liquid-gas ([1]; 1248 K, x1 = 0.3) of 269.5 ± 4.4 mN/m. It also gave a surface tension liquid-gas ([1]; 1273 K, x1 = 0.2) of 251.8 ± 4.1 mN/m, a surface tension liquid-gas ([1]; 1273 K, x1 = 0.25) of 259 ± 4.2 mN/m and a surface tension liquid-gas ([1]; 1273 K, x1 = 0.3) of 267.2 ± 4.3 mN/m. For the same molecule, the surface tension liquid-gas ([1]; 1298 K, x1 = 0.2) was 249.3 ± 4 mN/m, the surface tension liquid-gas ([1]; 1298 K, x1 = 0.25) was 256.3 ± 4.2 mN/m and the surface tension liquid-gas ([1]; 1298 K, x1 = 0.3) was 264.9 ± 4.3 mN/m. The surface tension liquid-gas ([1]; 1298 K, x1 = 0.35) was 274.2 ± 4.4 mN/m, the surface tension liquid-gas ([1]; 1323 K, x1 = 0.2) was 247 ± 4 mN/m and the surface tension liquid-gas ([1]; 1323 K, x1 = 0.25) was 253.6 ± 4.1 mN/m. The surface tension liquid-gas ([1]; 1323 K, x1 = 0.3) was 262.1 ± 4.3 mN/m, the surface tension liquid-gas ([1]; 1323 K, x1 = 0.35) was 271.4 ± 4.4 mN/m and the surface tension liquid-gas ([1]; 1323 K, x1 = 0.4) was 281.7 ± 4.6 mN/m. The surface tension liquid-gas ([1]; 1348 K, x1 = 0.2) was 244.4 ± 4 mN/m, the surface tension liquid-gas ([1]; 1348 K, x1 = 0.25) was 251.2 ± 4.1 mN/m and the surface tension liquid-gas ([1]; 1348 K, x1 = 0.3) was 258.9 ± 4.2 mN/m. It also gave a surface tension liquid-gas ([1]; 1348 K, x1 = 0.35) of 268.3 ± 4.4 mN/m, a surface tension liquid-gas ([1]; 1348 K, x1 = 0.4) of 279.1 ± 4.5 mN/m and a surface tension liquid-gas ([1]; 1373 K, x1 = 0.2) of 242.1 ± 3.9 mN/m. It also gave a surface tension liquid-gas ([1]; 1373 K, x1 = 0.25) of 248.8 ± 4 mN/m, a surface tension liquid-gas ([1]; 1373 K, x1 = 0.3) of 256.5 ± 4.2 mN/m and a surface tension liquid-gas ([1]; 1373 K, x1 = 0.35) of 265 ± 4.3 mN/m. For the same molecule, the surface tension liquid-gas ([1]; 1373 K, x1 = 0.4) was 276.5 ± 4.5 mN/m, the surface tension liquid-gas ([1]; 1398 K, x1 = 0.2) was 239.2 ± 3.9 mN/m and the surface tension liquid-gas ([1]; 1398 K, x1 = 0.25) was 246.7 ± 4 mN/m. The surface tension liquid-gas ([1]; 1398 K, x1 = 0.3) was 253.8 ± 4.1 mN/m, the surface tension liquid-gas ([1]; 1398 K, x1 = 0.35) was 262.2 ± 4.3 mN/m and the surface tension liquid-gas ([1]; 1398 K, x1 = 0.4) was 274 ± 4.5 mN/m. For the same molecule, the surface tension liquid-gas ([1]; 1423 K, x1 = 0.2) was 236.9 ± 3.9 mN/m, the surface tension liquid-gas ([1]; 1423 K, x1 = 0.25) was 243.9 ± 4 mN/m and the surface tension liquid-gas ([1]; 1423 K, x1 = 0.3) was 251.3 ± 4.1 mN/m. For the same molecule, the surface tension liquid-gas ([1]; 1423 K, x1 = 0.35) was 259.8 ± 4.2 mN/m and the surface tension liquid-gas ([1]; 1423 K, x1 = 0.4) was 270.9 ± 4.4 mN/m.

With `[F][Nd]([F])[F]` [neodymium fluoride] + [F-].[Li+] the surface tension liquid-gas ([1]; 1223 K, x1 = 0.2) was 249.1 ± 4.1 mN/m, the surface tension liquid-gas ([1]; 1223 K, x1 = 0.25) was 258.3 ± 4.2 mN/m and the surface tension liquid-gas ([1]; 1223 K, x1 = 0.3) was 267.8 ± 4.4 mN/m. For the same molecule, the surface tension liquid-gas ([1]; 1223 K, x1 = 0.35) was 279.2 ± 4.5 mN/m, the surface tension liquid-gas ([1]; 1248 K, x1 = 0.2) was 247.2 ± 4 mN/m and the surface tension liquid-gas ([1]; 1248 K, x1 = 0.25) was 255.7 ± 4.2 mN/m. For the same molecule, the surface tension liquid-gas ([1]; 1248 K, x1 = 0.3) was 264.9 ± 4.3 mN/m, the surface tension liquid-gas ([1]; 1248 K, x1 = 0.35) was 276.8 ± 4.5 mN/m and the surface tension liquid-gas ([1]; 1273 K, x1 = 0.2) was 244.3 ± 4 mN/m. The surface tension liquid-gas ([1]; 1273 K, x1 = 0.25) was 253.5 ± 4.1 mN/m, the surface tension liquid-gas ([1]; 1273 K, x1 = 0.3) was 262.7 ± 4.3 mN/m and the surface tension liquid-gas ([1]; 1273 K, x1 = 0.35) was 273.3 ± 4.4 mN/m. The surface tension liquid-gas ([1]; 1273 K, x1 = 0.4) was 284.1 ± 4.6 mN/m, the surface tension liquid-gas ([1]; 1298 K, x1 = 0.2) was 241.9 ± 3.9 mN/m and the surface tension liquid-gas ([1]; 1298 K, x1 = 0.25) was 250.9 ± 4.1 mN/m. It also gave a surface tension liquid-gas ([1]; 1298 K, x1 = 0.3) of 259.5 ± 4.2 mN/m, a surface tension liquid-gas ([1]; 1298 K, x1 = 0.35) of 270.4 ± 4.4 mN/m and a surface tension liquid-gas ([1]; 1298 K, x1 = 0.4) of 280.7 ± 4.6 mN/m. For the same molecule, the surface tension liquid-gas ([1]; 1323 K, x1 = 0.2) was 239.6 ± 3.9 mN/m, the surface tension liquid-gas ([1]; 1323 K, x1 = 0.25) was 249.3 ± 4.1 mN/m and the surface tension liquid-gas ([1]; 1323 K, x1 = 0.3) was 257 ± 4.2 mN/m. The surface tension liquid-gas ([1]; 1323 K, x1 = 0.35) was 268.1 ± 4.4 mN/m, the surface tension liquid-gas ([1]; 1323 K, x1 = 0.4) was 279.6 ± 4.5 mN/m and the surface tension liquid-gas ([1]; 1348 K, x1 = 0.2) was 237.3 ± 3.9 mN/m. For the same molecule, the surface tension liquid-gas ([1]; 1348 K, x1 = 0.25) was 246.3 ± 4 mN/m, the surface tension liquid-gas ([1]; 1348 K, x1 = 0.3) was 254.5 ± 4.1 mN/m and the surface tension liquid-gas ([1]; 1348 K, x1 = 0.35) was 266 ± 4.3 mN/m. It also gave a surface tension liquid-gas ([1]; 1348 K, x1 = 0.4) of 276.8 ± 4.5 mN/m, a surface tension liquid-gas ([1]; 1373 K, x1 = 0.2) of 235.2 ± 3.8 mN/m and a surface tension liquid-gas ([1]; 1373 K, x1 = 0.25) of 243.6 ± 4 mN/m. For the same molecule, the surface tension liquid-gas ([1]; 1373 K, x1 = 0.3) was 251.6 ± 4.1 mN/m, the surface tension liquid-gas ([1]; 1373 K, x1 = 0.35) was 262.7 ± 4.3 mN/m and the surface tension liquid-gas ([1]; 1373 K, x1 = 0.4) was 274.1 ± 4.5 mN/m. The surface tension liquid-gas ([1]; 1398 K, x1 = 0.2) was 232.9 ± 3.8 mN/m, the surface tension liquid-gas ([1]; 1398 K, x1 = 0.25) was 240.4 ± 3.9 mN/m and the surface tension liquid-gas ([1]; 1398 K, x1 = 0.3) was 249.3 ± 4.1 mN/m. For the same molecule, the surface tension liquid-gas ([1]; 1398 K, x1 = 0.35) was 260.4 ± 4.2 mN/m, the surface tension liquid-gas ([1]; 1398 K, x1 = 0.4) was 272.1 ± 4.4 mN/m and the surface tension liquid-gas ([1]; 1423 K, x1 = 0.2) was 230.8 ± 3.8 mN/m. The surface tension liquid-gas ([1]; 1423 K, x1 = 0.25) was 239.1 ± 3.9 mN/m, the surface tension liquid-gas ([1]; 1423 K, x1 = 0.3) was 246.9 ± 4 mN/m and the surface tension liquid-gas ([1]; 1423 K, x1 = 0.35) was 257.3 ± 4.2 mN/m. The surface tension liquid-gas ([1]; 1423 K, x1 = 0.4) was 268.2 ± 4.4 mN/m.

With `[Cl-].[K+]` [potassium chloride] the surface tension liquid-gas ([2]; 1230 K) was 86.14 ± 1.5 mN/m.

Work on `[F-].[Na+]` [sodium fluoride] yielded a surface tension liquid-gas ([2]; 1325 K) of 187.14 ± 3.1 mN/m.
